The record followed here is patent US6380243B1, “Aminopyridine-containing thiourea inhibitors of herpes viruses” (American Home Products Corporation, priority 1998, dated 2002).

The structures appear in SMILES notation. In brackets after ≈: the same amount, converted by molar mass. A value given as a limit tells only on which side of the number the result lay.

The test system of one experiment is VZV strain Ellen. The experiment in a line: VZV Antiviral (ELISA) Assay. It counts as cell-based, varicella-zoster virus. As to conditions: Human alphaherpesvirus 3, 72 h; for IC50: human foreskin fibroblast cells, three days, read-out: IC50 (ug/ml) VZV; for inhibition at 10 µg/mL: read-out: % inhibition 10 ug/ml VZV, 10 ug/ml, human foreskin fibroblast cells, three days. As for the experimental part:
For the generation of stock VZV to be used in the assay, VZV strain Ellen (ATCC #VR-1367) is used to infect human foreskin fibroblast (HFF) cells at low multiplicity (less than 0.1) and incubated overnight at 37° C. in 5% CO2. After the overnight incubation, the mixture of uninfected and VZV-infected HFF infected cells are then harvested and added to each well of 96-well plates (3.5×10^4 cells in 100 1μl DMEM supplemented with 2% FBS) which contain test compound or the reference standard drug control (in 100 μl DMEM supplemented with 2% FBS per well). These cells are incubated for three days at 37° C. in 5% CO2, then fixed for ELISA assay. The primary antibody is murine anti-VZV glycoprotein II monoclonal antibody (Applied Biosystems, Inc. #13-145-100) and the secondary antibody is goat anti-mouse IgG linked to β-galactosidase. Thus the extent of viral replication is determined by assessing β-galactosidase activity by quantifying the generation of the 4-methyl umbelliferone fluorescent cleavage product after addition of the methyl umbelliferyl-β-D-galactoside (Sigma #M1633) substrate on a microfluorimeter (365 nm for excitation 450 nm for emission). Antiviral activity (IC50) of the test compound is determined by comparing the flourescence obtained in absence of compound to that obtained the presence of compound.

The test system of another experiment is HSV-1. The experiment in a line: HSV Antiviral (ELISA) Assay. It counts as cell-based, herpes simplex virus type 1. As to conditions: Human alphaherpesvirus 1, Vero cells, HSV-1, about 24 hours post-infection, read-out: IC50 (ug/ml) HSV. As for the experimental part:
Vero cells (ATCC #CCL-81) are plated on 96-well tissue culture plates at 3.5×10^4 cells per 100 μl tissue culture DMEM (Dulbecco's modified Eagle media) supplemented with 2% fetal bovine serum (FBS) in each well. After overnight incubation @37° C. (in 5% CO2) and 30 minutes prior to infection with HSV-1 (multiplicity of infection equal to 0.006), cells are either untreated, or treated with test compound (multiple concentrations) or reference standard drug control. After approximately 24 hours post-infection incubation @37° C. (in 5% CO2), cells are fixed for ELISA assay. The primary antibody is murine anti-HSV glycoprotein D monoclonal primary antibody and the secondary antibody is goat anti-mouse IgG linked to β-galactosidase. Thus the extent of viral replication is determined by assessing β-galactosidase activity by quantifying the generation of the 4-methyl umbelliferone fluorescent cleavage product after addition of the methyl umbelliferyl-β-D-galactoside (Sigma #M1633) substrate on a microfluorimeter (365 nm for excitation and 450 nm for emission). Antiviral activity (IC50) of the test compound is determined by comparing the flourescence obtained in absence of compound to that obtained in the presence of compound.

In another experiment the test system is HCMV wild-type. In words: HCMV yield assay. It counts as cell-based, human cytomegalovirus. As to conditions: Human betaherpesvirus 5, Fibroblast; human foreskin fibroblasts; reduction of virus yield by 50%; read-out: IC50 (ug/ml) HCMV. The protocol:
Yield assay. Monolayer cultures of human foreskin fibroblasts are infected with HCMV wild-type, typically at a multiplicity of infection equal to 0.2, in the presence of inhibitor compound (varying concentrations). At three days post-infection, total virus produced in these cultures (i.e. virus yield) is assessed by harvesting and titering the virus in 12-well plates of cultured human foreskin fibroblasts (done in the absence of inhibitor). Plaques are quantified at 2 weeks post-infection. An inhibitor of HCMV is identified by the reduction in titer of virus yield in the presence, compared to the titer in the absence of compound. In this assay, the relative anti-HCMV activity of an inhibitor is typically determined by calculating the IC50 or IC90 value, that is, the amount of compound required to reduce the virus yield by 50% or 90%, respectively. Table I describes IC50 data for compounds tested against HCMV.

For `CC(NC(=S)Nc1ccc(NC(=O)c2ccccc2F)cc1)c1cccn1C` (centres unmarked) [Example 804, 2-Fluoro-N-(4-{3-[1-(1-methyl-1H-pyrrol-2-yl)-ethyl]-thioureido}-phenyl)-benzamide], the IC50 in the experiment on VZV strain Ellen was 5.7 µg/mL (≈ 14.4 µM); in the experiment on HSV-1 it was greater than 10 µg/mL; with HCMV wild-type it was greater than 10 µg/mL.
On to `O=C(Nc1ccc(NC(=S)Nc2ccccn2)cc1)c1ccco1` [Example 426, Furan-2-carboxylic acid [4-(3-pyridin-2-yl-thioureido)-phenyl]-amide], for which the IC50 in the experiment on VZV strain Ellen is 1.8 µg/mL (≈ 5.32 µM); in the experiment on HSV-1 it was greater than 10 µg/mL; with HCMV wild-type, 1.6 µg/mL (≈ 4.73 µM). The inhibition at 10 µg/mL in the experiment on VZV strain Ellen was 2%.
Turning to `O=C(Nc1ccc(NC(=S)NCc2cccnc2)cc1)c1csnn1` [Example 634, [1,2,3]Thiadiazole-4-carboxylic acid [4-(3-pyridin-3-ylmethyl-thioureido)-phenyl]-amide], the values for the IC50 in the experiment with VZV strain Ellen, in the experiment with HSV-1 and in the experiment on HCMV wild-type were greater than 10 µg/mL, greater than 10 µg/mL and 0.12 µg/mL (≈ 0.324 µM), respectively.
Turning to `CC(NC(=S)Nc1ccc(NC(=O)c2ccccc2F)cc1)c1ccc2ccccc2n1` (centres unmarked) [Example 1095, 2-Fluoro-N-{4-[3-(1-quinolin-2-yl-ethyl)-thioureido]-phenyl}-benzamide], the IC50 is 7.1 µg/mL (≈ 16 µM) in the experiment on VZV strain Ellen, greater than 10 µg/mL in the experiment with HSV-1 and 2.4 µg/mL (≈ 5.4 µM) with HCMV wild-type.
As to `O=C(Nc1ccc(NC(=S)Nc2ccc3[nH]ncc3c2)cc1)c1ccccc1F` [Example 483, 2-Fluoro-N-{4-[3-(1H-indazol-5-yl)-thioureido]-phenyl}-benzamide], the results for the IC50 with VZV strain Ellen, in the experiment on HSV-1 and in the experiment on HCMV wild-type were greater than 10 µg/mL, 1.2 µg/mL (≈ 2.96 µM) and 5 µg/mL (≈ 12.3 µM), respectively. The inhibition at 10 µg/mL with VZV strain Ellen came to 45%.
As to `CC(NC(=S)Nc1ccc(NC(=O)c2ccccc2F)cc1)c1cc2ccccc2cn1` (centres unmarked) [Example 1097, 2-Fluoro-N-{4-[3-(1-isoquinolin-3-yl-ethyl)-thioureido]-phenyl}-benzamide], the IC50 with VZV strain Ellen is 5.5 µg/mL (≈ 12.4 µM); in the experiment with HSV-1, greater than 10 µg/mL; with HCMV wild-type, 4 µg/mL (≈ 9 µM).
As to `O=C(Nc1ccc(NC(=S)Nc2ccncc2)cc1)c1ccco1` [Example 427, Furan-2-carboxylic acid [4-(3-pyridin-4-yl-thioureido)-phenyl]-amide], the results for the IC50 in the experiment on VZV strain Ellen, in the experiment with HSV-1 and in the experiment with HCMV wild-type were 1.2 µg/mL (≈ 3.55 µM), greater than 10 µg/mL and 0.8 µg/mL (≈ 2.36 µM), respectively. Moreover, the inhibition at 10 µg/mL with VZV strain Ellen is 21%.
The matching figures for `O=C(Nc1ccc(NC(=S)Nc2ccc(Cl)nc2)cc1)c1csnn1` [Example 471, [1,2,3]Thiadiazole-4-carboxylic acid {4-[3-(6-chloro-pyridin-3-yl)-thioureido]-phenyl}-amide]: greater than 10 µg/mL, greater than 10 µg/mL, 0.03 µg/mL (≈ 0.0767 µM) and 27%.
In the case of `Cc1ccc(S(=O)(=O)n2c(C(C)NC(=S)Nc3ccc(NC(=O)c4ccccc4F)cc3)cc3ccccc32)cc1` (centres unmarked) [Example 1094, 2-Fluoro-N-[4-(3-{1-[1-(toluene-4-sulfonyl)-1H-indol-2-yl]-ethyl}-thioureido)-phenyl]-benzamide], the IC50 in the experiment on VZV strain Ellen was greater than 7.5 µg/mL; in the experiment on HSV-1, greater than 10 µg/mL; in the experiment with HCMV wild-type it was greater than 10 µg/mL.
Consider `COc1ccccc1C(=O)Nc1ccc(NC(=S)NC(C)c2ccsc2)cc1` (centres unmarked) [Example 1101, 2-Methoxy-N-{4-[3-(1-thiophen-3-yl-ethyl)-thioureido]-phenyl}-benzamide], for which the IC50 with VZV strain Ellen was 1 µg/mL (≈ 2.43 µM); with HSV-1 it was greater than 10 µg/mL; in the experiment with HCMV wild-type, greater than 10 µg/mL.
Regarding `CC(NC(=S)Nc1ccc(NC(=O)c2ccccc2F)cc1)c1nccs1` (centres unmarked) [Example 1093, 2-Fluoro-N-{4-[3-(1-thiazol-2-yl-ethyl)-thioureido]-phenyl}-benzamide], the IC50 in the experiment on VZV strain Ellen, with HSV-1 and in the experiment with HCMV wild-type was greater than 10 µg/mL in each case.
Consider `O=C(Nc1ccc(NC(=S)Nc2ccccn2)cc1)c1ccccc1F` [Example 443, 2-Fluoro-N-[4-(3-pyridin-2-yl-thioureido)-phenyl]-benzamide], for which the IC50 in the experiment on VZV strain Ellen, in the experiment on HSV-1 and in the experiment on HCMV wild-type was greater than 10 µg/mL in each case. The inhibition at 10 µg/mL in the experiment on VZV strain Ellen stood at 0%.
